Here are results for four compounds from patent US12370165B2, “Hunger suppression” (TDeltaS Limited, priority 2017, dated 2025).

In one data set the test system is appetite. Conditions: rats; cited from earlier work.
The test system of the next data set is hunger. Description: Visual-analogue-scale (VAS) for hunger, desire to eat and fullness after study drink. The class given is in vivo, human. The method, then:
A randomised, single-blinded, cross-over study examined the effects of isocaloric ketone ester (KE) and dextrose drinks hunger in healthy, normal-weight participants (n=15) (FIG. 1A). An external Research Ethics Committee (14/LO/0288) approved the study, which was conducted at the University of Oxford in accordance with the Declaration of Helsinki. Participants were healthy, aged 21-42 and with no history of major illness (Anthropometric characteristics in Table 1). Participants provided written informed consent prior to inclusion. Drink order was randomised prior to commencement. Participants refrained from alcohol and caffeine for 24 h prior to each visit and consumed an identical evening meal, at the same time before each visit. Testing started at 0800 h following an overnight (>8 h) fast, with a minimum of 72 h between visits. Venous blood samples (2 ml) were obtained using a 22G catheter inserted into an antecubital vein. Fasting blood samples were collected prior to all interventions and then at regular intervals for 4 h following the study drink. At identical time points, participants completed a validated three-measure visual-analogue-scale (VAS) to assess ‘hunger,’ ‘desire to eat and’ fullness' (Stubbs et al., “The use of visual analogue scales to assess motivation to eat in human subjects: a review of their reliability and validity with an evaluation of new hand-held computerized systems for temporal tracking of hunger ratings”, Br J Nutr, 2000, 84(4):405-15). Each drink contained 1.9 kCal/kg of pHB (as ketone ester) or dextrose. Drinks were diluted to 500 ml with a commercially available citrus-flavoured drink containing 65 kCal ([…] of carbohydrate) (Glaceau, UK). The dextrose drink was taste-matched using a bitterness additive (Symrise, Holzminden, Germany). Prism6™ software was used for statistical analysis. VAS scores were measured as a distance (mm), and normalised by taking the baseline distance for each visit as ‘0’. Values are means±SEM with significance at p<0.05. […] Correlations were calculated using a two-tailed Pearson's test with a 95% confidence interval.

The next data set concerns plasma glucose. The data set can be described thus: Plasma glucose after study drink (commercial analyzer). The data set is classed as in vivo, human. How it is done: (§1) A randomised, single-blinded, cross-over study examined the effects of isocaloric ketone ester (KE) and dextrose drinks hunger in healthy, normal-weight participants (n=15) (FIG. 1A). An external Research Ethics Committee (14/LO/0288) approved the study, which was conducted at the University of Oxford in accordance with the Declaration of Helsinki. Participants were healthy, aged 21-42 and with no history of major illness (Anthropometric characteristics in Table 1). Participants provided written informed consent prior to inclusion. Drink order was randomised prior to commencement. Participants refrained from alcohol and caffeine for 24 h prior to each visit and consumed an identical evening meal, at the same time before each visit. Testing started at 0800 h following an overnight (>8 h) fast, with a minimum of 72 h between visits. Venous blood samples (2 ml) were obtained using a 22G catheter inserted into an antecubital vein. […] Blood pHB was measured using a handheld monitor and reagent strips (Precision Xtra, Abbott Diabetes Care, UK). Blood samples were stored on ice, centrifuged and duplicate plasma aliquots stored at −80° C. and analysed within 6 weeks. Plasma glucose was assayed using a commercial analyzer (ABX Pentra, France), whereas insulin, total ghrelin, GLP-1 and PYY were measured using commercially available ELISA assays (Mercodia, Sweden and Merck Millipore, Germany).

The test system of another data set is GLP-1. The data set can be described thus: Plasma GLP-1 after study drink (ELISA). The data set is classed as in vivo, human. Conditions: after 30 min. The method, then: as §1
In the next data set the test system is insulin. The data set can be described thus: Plasma insulin after study drink (ELISA). The data set is classed as in vivo, human. How it is done: as §1
On the technique in general: ELISA stands for enzyme-linked immunosorbent assay.

The subject of another data set is PYY. The data set can be described thus: Plasma PYY after study drink (ELISA). The class given is in vivo, human. Conditions: after 30 min. How it is done:
as §1

Another data set deals with total ghrelin. Description: Plasma total ghrelin after study drink (ELISA). The data set is classed as in vivo, human. The method, then:
A randomised, single-blinded, cross-over study examined the effects of isocaloric ketone ester (KE) and dextrose drinks hunger in healthy, normal-weight participants (n=15) (FIG. 1A). An external Research Ethics Committee (14/LO/0288) approved the study, which was conducted at the University of Oxford in accordance with the Declaration of Helsinki. Participants were healthy, aged 21-42 and with no history of major illness (Anthropometric characteristics in Table 1). Participants provided written informed consent prior to inclusion. Drink order was randomised prior to commencement. Participants refrained from alcohol and caffeine for 24 h prior to each visit and consumed an identical evening meal, at the same time before each visit. Testing started at 0800 h following an overnight (>8 h) fast, with a minimum of 72 h between visits. Venous blood samples (2 ml) were obtained using a 22G catheter inserted into an antecubital vein. Fasting blood samples were collected prior to all interventions and then at regular intervals for 4 h following the study drink. At identical time points, participants completed a validated three-measure visual-analogue-scale (VAS) to assess ‘hunger,’ ‘desire to eat and’ fullness' (Stubbs et al., “The use of visual analogue scales to assess motivation to eat in human subjects: a review of their reliability and validity with an evaluation of new hand-held computerized systems for temporal tracking of hunger ratings”, Br J Nutr, 2000, 84(4):405-15). Each drink contained 1.9 kCal/kg of pHB (as ketone ester) or dextrose. Drinks were diluted to 500 ml with a commercially available citrus-flavoured drink containing 65 kCal (5 g of carbohydrate) (Glaceau, UK). The dextrose drink was taste-matched using a bitterness additive (Symrise, Holzminden, Germany). Blood pHB was measured using a handheld monitor and reagent strips (Precision Xtra, Abbott Diabetes Care, UK). Blood samples were stored on ice, centrifuged and duplicate plasma aliquots stored at −80° C. and analysed within 6 weeks. Plasma glucose was assayed using a commercial analyzer (ABX Pentra, France), whereas insulin, total ghrelin, GLP-1 and PYY were measured using commercially available ELISA assays (Mercodia, Sweden and Merck Millipore, Germany).

Data set [1] is described as follows: General findings on esters: circulating (R)-3-hydroxybutyrate, gut uptake. The class given is in vivo.
The test system of the next data set is plasma ghrelin. Description: General finding on esters: plasma ghrelin levels. As to conditions: in vivo.

In the case of `CC(O)CCOC(=O)CC(C)O` (centres unmarked) [3-hydroxybutyl 3-hydroxybutyrate], in the data set on appetite, the appetite entry is listed as “suppress appetite”.

Turning to `C[C@@H](O)CCOC(=O)C[C@@H](C)O` [KE], in the data set with hunger (KE vs dextrose drinks), the “Perceived 'Fullness'” value is “the same”. In addition, in the data set with hunger (for 1.5 to 4 h after drink), the “'desire to eat' lowered compared to dextrose drinks” value is recorded as −50% and the “perception of 'hunger' lowered compared to dextrose drinks” value is −50%. The compound further had a Plasma glucose levels in the data set with plasma glucose (30 min after drink, mean±SEM) of 5.1 ± 0.2 mM. In the data set with plasma glucose (after 90 min), the “plasma glucose, difference between KE and dextrose drinks” value is “no significant differences”. Besides, the “plasma GLP-1 levels” value with GLP-1 is 5 pg/mL. The Plasma insulin levels in the data set on insulin (30 min after drink, mean±SEM) was found to be 13±2 mU/L. For the same compound, the “plasma insulin, difference between KE and dextrose drinks” value in the data set with insulin (after 90 min) is given as “no significant differences”. Moreover, the “plasma PYY levels” value with PYY amounted to 57 pg/mL. Besides, in the data set on total ghrelin (1 h following drink), the plasma ghrelin stood at 320 pg/mL. The “Total ghrelin AUC lower with KE vs. dextrose” value in the data set with total ghrelin (4 h after drink) was 17%. Moreover, the “Total ghrelin AUC” value in the data set on total ghrelin (4 h after drink, mean±SEM) stood at 86 ± 6 ng·min/mL. Further, the “plasma ghrelin lower than after dextrose” value in the data set with total ghrelin (between 2-4 h post-drink) is over 100 pg/mL.

Take `C[C@@H](O)CCOC(=O)C[C@@H](C)O` [(R)-3-hydroxybutyrate (R)-1,3-butanediol monoester]: in data set [1] (in vivo), the “circulating levels of (R)-3-hydroxybutyrate in the blood” value is “high circulating levels” and the “uptake in the gut” value was “surprisingly high level of uptake”. Moreover, the plasma ghrelin levels result in the data set on plasma ghrelin is listed as “reduce plasma ghrelin levels”.

As for “(R)-3-hydroxybutyrate-glycerol partial ester”, the “uptake in the gut” value in [1] (in vivo) is recorded as “surprisingly high level of uptake”. In [1] (upon consumption of a drink), the “circulating levels of (R)-3-hydroxybutyrate in the blood” value is “high circulating levels”. In addition, the plasma ghrelin levels entry with plasma ghrelin is listed as “reduce plasma ghrelin levels”.
